{
  "source": "paper PMC5897044",
  "about": "(Cell host & microbe, 2017)",
  "tested_on": "PMN infiltration in skin",
  "conditions": "mouse, in vivo",
  "note": "Bridge positions count the residues as written; N and C are the ends. Peptide text beside a SMILES is read from it.",
  "data": [
    {"smiles": "C[C@@H](O)[C@H](NC(=O)[C@H](CO)NC(=O)[C@@H](N)Cc1ccc(O)cc1)C(=O)N[C@H]1CSC(=O)[C@H](Cc2ccccc2)NC(=O)[C@H](Cc2ccc(O)cc2)NC(=O)[C@H](Cc2ccc(O)cc2)NC(=O)[C@H](CO)NC1=O", "note": "[S. caprae AIP] (H-YSTCSYYF; thioester 4-C)", "values": [
      {"measurement": "magnitude of PMN infiltration by sterile injection, AIP vs vehicle", "value": "equivalent"}
    ]}
  ]
}
